Measurements as given in patent publication US9376382B2, “N-substituted isopropyldimethyl azulene sulfonamide derivatives, and preparation method and use thereof” (Sichuan Guokang Pharmaceutical Co., Ltd., priority 2011, dated 2016).

Assays:
[1] = High-temperature test (60° C.), stability study; type: physicochemical; settings: open-stored; for Appearance Day 5: Day 5, cell wraps; for Appearance Day 5 / Appearance Day 10: first line given; for Appearance Day 10: Day 10, cell wraps;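 on all read-outs here: samples kept uncovered in dishes at 60 °C for up to 10 days and examined on Day 5 and Day 10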
Description: (§1) The test samples were open-stored in culture dishes at 60° C. for 10 days, and taken and detected on Day 5 and Day 10. • The characteristics, especially colour change were observed. • Melting points were measured by automatic melting point apparatus. • By self-reflection, TLC is used to observe whether the spot numbers were increased after 5 days and 10 days.

[2] = Intense light irradiation test (4500LX ± 500LX), stability study; type: physicochemical; settings: for Appearance Day 0: Day 0, cell wraps; for Appearance Day 0 / Appearance Day 5 / Appearance Day 10: first line given; for Appearance Day 5: Day 5, cell wraps; for Appearance Day 10: Day 10, cell wraps
Description: (§2) The test samples were open-stored in “adjustable light boxes” under the conditions of illumination of 4500LX±500LX for 10 days, and taken and detected on Day 5 and Day 10 with regards to dry items. • The characteristics, especially colour change was observed. • Melting points were measured by an automatic melting point apparatus. • By self-reflection, TLC is used to observe whether the spot numbers were increased after 5 days and 10 days.

[3] = High humidity test (25° C., relative humidity 90% ± 5%), stability study; type: physicochemical; settings: RH 90% ± 5%; for Appearance Day 0: Day 0, cell wraps; for Appearance Day 0 / Appearance Day 5 / Appearance Day 10: first line given; for Appearance Day 5: Day 5, cell wraps; for Appearance Day 10: Day 10, cell wraps;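 on all read-outs here: samples kept uncovered in sealed humidity desiccators, appearance judged mainly by colour change, melting point on an automatic apparatus, TLC checked for extra spots versus start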
Description: (§3) The test samples were open-stored in closed constant humidity desiccators under the condition of 25° C. and relative humidity of 90%+5% for 10 days, and taken and detected on Day 5 and Day 10. Meanwhile, each sample was accurately weighed before and after test.
The characteristics, especially colour change was observed.
Melting points were measured by an automatic melting point apparatus.
By self-reflection, TLC is used to observe whether the spot numbers were increased after 5 days and 10 days.

[4] = test system: ethanol-induced gastric ulcer; experiment: Anhydrous ethanol-induced gastric ulcer in mice; type: in vivo, Kunming mice; design: key to Gastri ulcer score (X ± SD) / Ulcer score (X ± SD) / Gastric ulcer score (X ± SD): summed pathology score: congestion 1, hemorrhage/erosion 1, linear erosion 3; settings: for Inhibition rate (%) / Gastri ulcer score (X ± SD): Table 4; for Inhibition rate (%): inhibition rate of ulcer vs model group; for Gastri ulcer score (X ± SD): mice, intragastric once a day for five days, dose equimolar to azulene sulfonate sodium 3.0 mg/kg (Omeprazole 13.4 mg/kg), model group 13.00 ± 1.77; for anti-gastric ulcer effect in words: ethanol-induced gastric ulcer in mice, compared to the model group
Description: Kunming mice, half male and half female, weighing 18-22 g, provided by the West China Animal Center
(1) Azulene sodium sulphonate was added with 0.5% CMC to prepare a suspension with concentration of 0.15 mg/ml.
(2) 20 mg of Omeprazole was added with 0.5% CMC to prepare a suspension with concentration of 0.67 mg/ml.
Kunming mice were randomly grouped according the body weight (one model control group or negative control group, one Omeprazole control group or positive control group, one Azulene sodium sulphonate control group, twelve test drug groups), eight mice for each group, half male and half female.
Administration: Model control group was administrated intragastrically with 0.5% CMC solution at a dose of 0.4 ml/20 g; Omeprazole control group was administrated intragastrically with Omeprazole at a dose of 0.4 ml/20 g, Azulene sodium sulphonate control group and each test drug groups were administrated intragastrically with their respective drug at a dose of 0.4 ml/20 g. The mice in each group were administrated once a day for successive five days. 0.5 hour after final administration, the mice in each group were administrated intragastrically with 0.5 ml of anhydrous ethanol, one hour later the mice were executed and dissected, and their stomaches were taken, washed and scored according to the pathological degree. For local congestion and rubefaction, score was 1; for petechial hemorrhage or erosion, score was respectively 1, for each linear erosion, score was 3. Statistical analysis was performed. Ulcer scores were calculated, significant differences between the groups were compared and the inhibition rates of ulcer were calculated [Inhibition rate of ulcer=(ulcer score of model group−ulcer score of drug administration group)/ulcer score of model group].

[5] = Stability studies (light, humidity, heat), overall comparison; settings: summary of high-temperature, high humidity and intense light tests
Description: as §1, §3, §2

[6] = Stability of the purified compound in the air; type: physicochemical

SMILES | Melting point Day 0 [1] | Spot numbers on TLC Day 0 [1] | Melting point Day 5 [1] | Spot numbers on TLC Day 5 [1] | Appearance Day 5 [1] | Melting point Day 10 [1] | Spot numbers on TLC Day 10 [1] | Appearance Day 10 [1] | Spot numbers on TLC Day 0 [2] | Appearance Day 0 [2] | Spot numbers on TLC Day 5 [2] | Appearance Day 5 [2] | Spot numbers on TLC Day 10 [2] | Appearance Day 10 [2] | Melting point Day 0 [3] | Spot numbers on TLC Day 0 [3] | hygroscopic rate (%) Day 0 [3] [%] | Appearance Day 0 [3] | Melting point Day 5 [3] | Spot numbers on TLC Day 5 [3] | also measured
Cc1cc(S(=O)(=O)Nc2cccc3ccccc23)c2c(C)ccc(C(C)C)cc1-2 [4d, N-(1-naphthyl)-3,8-dimethyl-5-isopropyl-1-azulene sulfonamide] | 140.0-142.5 °C | 1 | 141.5-142.5 °C | 1 | purple | 140.0-142.5 °C | 1 | purple | 1 | purple | 1 | purple | 1 | purple | 140.0-142.5 °C | 1 | 1.23 | purple | 140.0-142.5 °C | 1 | Melting point Day 0 [2]: 140.0-142.5 °C; Melting point Day 5 [2]: 141.5-143.0 °C; Melting point Day 10 [2]: 140.0-142.0 °C; hygroscopic rate (%) Day 5 [3]: 1.61%; Appearance Day 5 [3]: purple; Melting point Day 10 [3]: 140.0-142.5 °C; Spot numbers on TLC Day 10 [3]: 1; Appearance Day 10 [3]: purple; Inhibition rate (%) [4]: 50.54%; Gastri ulcer score (X ± SD) [4]: 6.43 ± 2.99; anti-gastric ulcer effect in words [4]: significantly relieve the pathological degree; melting point: 140 to 142 °C; light, humidity and heat stability in words [5]: better light, humidity and heat stability than azulene sulfonate sodium
COc1ccc(NS(=O)(=O)c2cc(C)c3cc(C(C)C)ccc(C)c2-3)c(OC)c1 [4b, N-(2,4-dimethoxyphenyl)-3,8-dimethyl-5-isopropyl-1-azulene sulfonamide] | 114.0-115.5 °C | 1 | 114.5-116.0 °C | 1 | purple | 113.5-115.0 °C | 1 | purple | 1 | purple | 1 | purple | 1 | purple | 114.0-115.5 °C | 1 | 0.97 | purple | 114.0-115.5 °C | 1 | hygroscopic rate (%) Day 5 [3]: 1.24%; Appearance Day 5 [3]: purple; Melting point Day 10 [3]: 114.0-115.5 °C; Spot numbers on TLC Day 10 [3]: 1; Appearance Day 10 [3]: purple; Inhibition rate (%) [4]: 52.77%; Gastri ulcer score (X ± SD) [4]: 6.14 ± 2.85; anti-gastric ulcer effect in words [4]: significantly relieve the pathological degree; melting point: 114 to 116 °C; light, humidity and heat stability in words [5]: better light, humidity and heat stability than azulene sulfonate sodium
Cc1cc(S(=O)(=O)NC2CCCCC2)c2c(C)ccc(C(C)C)cc1-2 [4i, N-cyclohexyl-3,8-dimethyl-5-isopropyl-1-azulene sulfonamide] | 107.5-108.5 °C | 1 | 107.0-108.5 °C | 1 | purple | 107.0-108.5 °C | 1 | purple | 1 | purple | 1 | purple | 1 | purple | 108.5-109.0 °C | 1 | 1.89 | purple | 108.5-109.5 °C | 1 | Melting point Day 0 [2]: 107.5-108.5 °C; Melting point Day 5 [2]: 107.5-108.5 °C; hygroscopic rate (%) Day 5 [3]: 2.35%; Appearance Day 5 [3]: purple; Melting point Day 10 [3]: 107.5-108.5 °C; Spot numbers on TLC Day 10 [3]: 1; Appearance Day 10 [3]: purple; Inhibition rate (%) [4]: 50.92%; Gastri ulcer score (X ± SD) [4]: 6.38 ± 3.85; anti-gastric ulcer effect in words [4]: significantly relieve the pathological degree; melting point: 108 to 109 °C; light, humidity and heat stability in words [5]: better light, humidity and heat stability than azulene sulfonate sodium
Cc1cc(S(=O)(=O)NN)c2c(C)ccc(C(C)C)cc1-2 [4m, N-amino-3,8-dimethyl-5-isopropyl-1-azulene sulfonamide] |  |  |  |  |  |  |  |  |  |  |  |  |  |  |  |  |  |  |  |  | stability in the air [6]: deteriorated soon in the air and had a very poor stability
Cc1cc(S(=O)(=O)Nc2cccc(Br)c2)c2c(C)ccc(C(C)C)cc1-2 [4a, N-(3-bromophenyl)-3,8-dimethyl-5-isopropyl-1-azulene sulfonamide] | 172.5-174.0 °C | 1 | 172.0-173.5 °C | 1 | purple | 172.5-174.0 °C | 1 | purple | 1 | purple | 1 | purple | 1 | purple | 172.5-174.0 °C | 1 | 1.01 | purple | 172.0-174.5 °C | 1 | Melting point Day 0 [2]: 172.5-174.0 °C; Melting point Day 5 [2]: 172.0-175.0 °C; Melting point Day 10 [2]: 173.0-174.0 °C; hygroscopic rate (%) Day 5 [3]: 1.46%; Appearance Day 5 [3]: purple; Melting point Day 10 [3]: 172.0-174.5 °C; Spot numbers on TLC Day 10 [3]: 1; Appearance Day 10 [3]: purple; Inhibition rate (%) [4]: 51.31%; Gastri ulcer score (X ± SD) [4]: 6.33 ± 4.50; anti-gastric ulcer effect in words [4]: significantly relieve the pathological degree; melting point: 172 to 174 °C; light, humidity and heat stability in words [5]: better light, humidity and heat stability than azulene sulfonate sodium
